# Several values for one entry are separate records, joined by “and”; a condition that tells them apart may be missing. Identical values can stand only once. Inconclusive results and toxic doses are left out.
# Test system: BDF1 mice, P388 leukemia ip, median survival T/C
# Test: NCI In Vivo Anticancer Drug Screen. Data for tumor model P388 Leukemia (intraperitoneal) in B6D2F1 (BDF1) mice
# Conditions: endpoint: median survival time, higher = longer survival
# Outline: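 Antitumour effect was judged in vivo: survival in drug-treated mice, normalised to that of vehicle-dosed controls, gives the reported T/C.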
# [1] = dose: 50.0 mg/kg/injection, schedule: Q01DX009 (ip), vehicle: other
# [2] = dose: 50.0 mg/kg/injection, schedule: Q01DX009 (ip), vehicle: water
# [3] = dose: 100.0 mg/kg/injection, schedule: Q01DX009 (ip), vehicle: other
# [4] = dose: 200.0 mg/kg/injection, schedule: Q01DX009 (ip), vehicle: other
# [5] = dose: 200.0 mg/kg/injection, schedule: Q01DX009 (ip), vehicle: water
# [6] = dose: 400.0 mg/kg/injection, schedule: Q01DX009 (ip), vehicle: water
# [7] = dose: 100.0 mg/kg/injection, schedule: Q04DX003 (ip), vehicle: saline with Tween-80
# [8] = dose: 200.0 mg/kg/injection, schedule: Q04DX003 (ip), vehicle: saline with Tween-80
# [9] = dose: 50.0 mg/kg/injection, schedule: Q01DX009 (ip), vehicle: saline with Tween-80
# [10] = dose: 100.0 mg/kg/injection, schedule: Q01DX009 (ip), vehicle: saline with Tween-80
# [11] = dose: 200.0 mg/kg/injection, schedule: Q01DX009 (ip), vehicle: saline with Tween-80
# [12] = dose: 50.0 mg/kg/injection, schedule: Q01DX009 (ip), vehicle: saline
# [13] = dose: 100.0 mg/kg/injection, schedule: Q01DX009 (ip), vehicle: saline
# [14] = dose: 100.0 mg/kg/injection, schedule: Q01DX009 (ip), vehicle: Klucel (hydroxypropylcellulose) (HPC)
# [15] = dose: 100.0 mg/kg/injection, schedule: Q04DX003 (ip), vehicle: Klucel (hydroxypropylcellulose) (HPC)
# [16] = dose: 400.0 mg/kg/injection, schedule: Q01DX009 (ip), vehicle: saline
# [17] = dose: 200.0 mg/kg/injection, schedule: Q01DX009 (ip), vehicle: saline
# [18] = dose: 400.0 mg/kg/injection, schedule: Q04DX003 (ip), vehicle: saline with Tween-80
smiles,measurement,setting,value
COc1ccc(CN(CCOC(=O)c2ccc(OC)cc2)CCN(CCOC(=O)c2ccc(OC)cc2)Cc2ccc(OC)cc2)cc1,T/C,"dose: 25.0 mg/kg/injection, schedule: Q01DX009 (ip), vehicle: other",89 % of control
same,T/C,"dose: 25.0 mg/kg/injection, schedule: Q01DX009 (ip), vehicle: water",93 % of control
same,T/C,"dose: 25.0 mg/kg/injection, schedule: Q04DX003 (ip), vehicle: water",95 % of control and 100 % of control
same,T/C,[1],91 % of control
same,T/C,[2],101 % of control
same,T/C,[3],86 % of control
same,T/C,[4],94 % of control
same,T/C,[5],110 % of control
same,T/C,"dose: 300.0 mg/kg/injection, schedule: Q04DX003 (ip), vehicle: water",107 % of control
same,T/C,[6],95 % of control
Cc1ccc2c(c1)nc1c3ccccc3nnn21,T/C,"dose: 50.0 mg/kg/injection, schedule: Q04DX003 (ip), vehicle: saline with Tween-80",112 % of control
same,T/C,[7],104 % of control
same,T/C,[8],107 % of control
CN1CCC(C(O)c2ccccc2)CC1 (configuration not stated),T/C,"dose: 100.0 mg/kg/injection, schedule: Q01DX001 (ip), vehicle: Klucel (hydroxypropylcellulose) (HPC)",105 % of control
same,T/C,"dose: 200.0 mg/kg/injection, schedule: Q01DX001 (ip), vehicle: Klucel (hydroxypropylcellulose) (HPC)",105 % of control
O=C(NC1=NN(c2ccccc2)C(=O)C1)C(Cl)c1ccccc1 (configuration not stated),T/C,[9],104 % of control
same,T/C,[10],95 % of control
same,T/C,[11],95 % of control
COc1ccc(Nc2c3ccccc3nc3ccccc23)cc1,T/C,[9],208 % of control
C=C1C(=O)O[C@H]2C/C(C)=C/CC/C(CO)=C/[C@@H](O)[C@H]12,T/C,"dose: 5.5 mg/kg/injection, schedule: Q01DX009 (ip), vehicle: alcohol",110 % of control
same,T/C,"dose: 33.0 mg/kg/injection, schedule: Q01DX009 (ip), vehicle: alcohol",120 % of control
same,T/C,"dose: 50.0 mg/kg/injection, schedule: Q01DX009 (ip), vehicle: alcohol",95 % of control
NC(=NCCCC(NC(=O)OCc1ccccc1)C(=O)NC(Cc1ccccc1)C(=O)OCc1ccccc1)NC(=O)OCc1ccccc1 (configuration not stated),T/C,"dose: 12.5 mg/kg/injection, schedule: Q01DX005 (ip), vehicle: saline with Tween-80",92 % of control
same,T/C,"dose: 25.0 mg/kg/injection, schedule: Q01DX005 (ip), vehicle: saline with Tween-80",92 % of control
same,T/C,"dose: 50.0 mg/kg/injection, schedule: Q01DX005 (ip), vehicle: saline with Tween-80",90 % of control and 101 % of control
same,T/C,"dose: 100.0 mg/kg/injection, schedule: Q01DX005 (ip), vehicle: saline with Tween-80",97 % of control
same,T/C,"dose: 200.0 mg/kg/injection, schedule: Q01DX005 (ip), vehicle: saline with Tween-80",107 % of control
CCOC(=O)N1C=Cn2c(cnc2C)C1O (configuration not stated),T/C,[12],105 % of control
same,T/C,[2],110 % of control
same,T/C,[13],97 % of control
same,T/C,"dose: 100.0 mg/kg/injection, schedule: Q01DX009 (ip), vehicle: water",103 % of control
same,T/C,"dose: 100.0 mg/kg/injection, schedule: Q04DX003 (ip), vehicle: saline",100 % of control
same,T/C,"dose: 100.0 mg/kg/injection, schedule: Q04DX003 (ip), vehicle: water",96 % of control
same,T/C,[5],94 % of control
same,T/C,"dose: 200.0 mg/kg/injection, schedule: Q04DX003 (ip), vehicle: saline",102 % of control
same,T/C,"dose: 200.0 mg/kg/injection, schedule: Q04DX003 (ip), vehicle: water",96 % of control
same,T/C,[6],94 % of control
same,T/C,"dose: 400.0 mg/kg/injection, schedule: Q04DX003 (ip), vehicle: saline",93 % of control
same,T/C,"dose: 400.0 mg/kg/injection, schedule: Q04DX003 (ip), vehicle: water",88 % of control
CCOC(=O)CC(C)(C)NCc1ccccc1,T/C,"dose: 25.0 mg/kg/injection, schedule: Q01DX009 (ip), vehicle: Klucel (hydroxypropylcellulose) (HPC)",90 % of control
same,T/C,"dose: 25.0 mg/kg/injection, schedule: Q04DX003 (ip), vehicle: Klucel (hydroxypropylcellulose) (HPC)",108 % of control
same,T/C,"dose: 50.0 mg/kg/injection, schedule: Q04DX003 (ip), vehicle: Klucel (hydroxypropylcellulose) (HPC)",95 % of control
same,T/C,[14],95 % of control
same,T/C,[15],116 % of control
CC(CC#N)NC(=O)C1CCC(N)=N1 (configuration not stated),T/C,[13],111 % of control
same,T/C,[16],103 % of control
COC(C)C(NC(=O)C1CCCN1C)C1OC(SCCOC(=O)c2ccccc2O)C(O)C(O)C1O (configuration not stated),T/C,[12],100 % of control
same,T/C,[13],100 % of control and 101 % of control (2×)
same,T/C,[17],104 % of control
COc1ccc(CSc2ncnc3nc[nH]c23)cc1,T/C,[10],95 % of control
same,T/C,[7],100 % of control
same,T/C,[8],100 % of control
same,T/C,[18],87 % of control
CCSc1ccc2c(cc1=O)[C@@H](NC1OC(CO)C(O)C(O)C1O)CCc1cc(OC)c(OC)c(OC)c1-2 (some centres not stated),T/C,[1],106 % of control and 111 % of control
same,T/C,[3],106 % of control and 115 % of control
same,T/C,[4],112 % of control
CCCCC(=O)C1=C(O)C(Nc2ccccc2)=CC(=O)C1=Nc1ccccc1,T/C,[7],98 % of control
same,T/C,[8],103 % of control
same,T/C,[18],100 % of control
O=C(/C=C(/c1ccccc1)P(=O)(c1ccccc1)c1ccccc1)c1ccccc1,T/C,[10],100 % of control
same,T/C,[11],95 % of control
same,T/C,"dose: 400.0 mg/kg/injection, schedule: Q01DX009 (ip), vehicle: saline with Tween-80",100 % of control
NC(=O)c1cn(C2OC(CO)C(O)C2O)c2ncnc(N)c12 (configuration not stated),T/C,"dose: 0.18 mg/kg/injection, schedule: Q01DX009 (ip), vehicle: saline with Tween-80",183 % of control
same,T/C,"dose: 0.25 mg/kg/injection, schedule: Q01DX010 (ip), vehicle: water",181 % of control
same,T/C,"dose: 0.37 mg/kg/injection, schedule: Q01DX009 (ip), vehicle: saline with Tween-80",162 % of control
same,T/C,"dose: 0.5 mg/kg/injection, schedule: Q01DX010 (ip), vehicle: water",190 % of control
same,T/C,"dose: 0.5 mg/kg/injection, schedule: Q04DX003 (ip), vehicle: saline",163 % of control
same,T/C,"dose: 0.75 mg/kg/injection, schedule: Q01DX009 (ip), vehicle: saline with Tween-80",187 % of control and 200 % of control
same,T/C,"dose: 0.75 mg/kg/injection, schedule: Q01DX010 (ip), vehicle: water",177 % of control
same,T/C,"dose: 1.5 mg/kg/injection, schedule: Q01DX009 (ip), vehicle: saline with Tween-80",195 % of control
same,T/C,"dose: 1.5 mg/kg/injection, schedule: Q04DX003 (ip), vehicle: saline",154 % of control
same,T/C,"dose: 2.0 mg/kg/injection, schedule: Q04DX003 (ip), vehicle: saline with Tween-80",122 % of control
same,T/C,"dose: 3.0 mg/kg/injection, schedule: Q04DX003 (ip), vehicle: saline with Tween-80",195 % of control
same,T/C,"dose: 3.0 mg/kg/injection, schedule: Q04DX003 (ip), vehicle: saline",195 % of control
same,T/C,"dose: 6.0 mg/kg/injection, schedule: Q04DX003 (ip), vehicle: saline with Tween-80",190 % of control
same,T/C,"dose: 6.0 mg/kg/injection, schedule: Q04DX003 (ip), vehicle: saline",90 % of control
CC(=N\O)/C(C)=N/O.CC(=N\O)/C(C)=N/O.[Br][Rh][Br],T/C,"dose: 25.0 mg/kg/injection, schedule: Q01DX009 (ip), vehicle: saline",99 % of control
same,T/C,[12],100 % of control
same,T/C,[13],119 % of control and 92 % of control
same,T/C,[17],110 % of control and 99 % of control and 100 % of control
same,T/C,[16],100 % of control
O=[N+]([O-])c1cc([N+](=O)[O-])c2ccccc2c1NS(=O)(=O)/C=C/c1ccccc1,T/C,"dose: 25.0 mg/kg/injection, schedule: Q01DX009 (ip), vehicle: saline with Tween-80",104 % of control
same,T/C,[9],112 % of control
same,T/C,[10],111 % of control
BrC1C2CCC(CC2)C1Br (configuration not stated),T/C,[14],100 % of control
same,T/C,[15],95 % of control
same,T/C,"dose: 200.0 mg/kg/injection, schedule: Q01DX009 (ip), vehicle: Klucel (hydroxypropylcellulose) (HPC)",104 % of control
same,T/C,"dose: 200.0 mg/kg/injection, schedule: Q04DX003 (ip), vehicle: Klucel (hydroxypropylcellulose) (HPC)",95 % of control
same,T/C,"dose: 400.0 mg/kg/injection, schedule: Q04DX003 (ip), vehicle: Klucel (hydroxypropylcellulose) (HPC)",91 % of control
CC(C)(C)CN1CN(CC(C)(C)C)CN(CC(C)(C)C)C1,T/C,"dose: 100.0 mg/kg/injection, schedule: Q04DX002 (ip), vehicle: saline with Tween-80",94 % of control
same,T/C,"dose: 200.0 mg/kg/injection, schedule: Q04DX002 (ip), vehicle: saline with Tween-80",97 % of control
same,T/C,"dose: 400.0 mg/kg/injection, schedule: Q04DX002 (ip), vehicle: saline with Tween-80",94 % of control

# Reference: PubChem BioAssay AID328 (DTP/NCI, 2004)
